The values that follow come from article PMC11090880 (Current Research in Microbial Sciences, 2024).

By IC50 is commonly meant the point on the concentration scale where inhibition reaches its midpoint. Low values mean greater potency, high ones weaker potency.

The target in the assay is OROV Endo-Nter (N-terminal endonuclease domain of the OROV RNA polymerase, L protein) (Oropouche virus, UniProt A0A0B5CUJ1). Kind of assay: FRET cleavage assay of dual-labelled DNA. The class given is biochemical.

The compound `COc1cc(O)c2c(c1)oc(=O)c1c3cc(O)c(O)cc3oc21` [WDL, 7‑methoxy 5,11,12-trihydroxy-coumestan] gave an IC50 of 310 ± 8 nM.
